Assay results published in publication PMC10096163, “Structural Insights and Intermolecular Energy for Some Medium and Long-Chain Testosterone Esters” (Molecules, 2023).
Values after ≈ are worked out from the molar mass of the structure shown. Where two headings read alike, the source gives them in different places.

Legend:
[1] = cited from earlier work
[2] = design: method as in PMID 36295310; conditions: short esters, previously reported; cited from earlier work
[3] = Solubility of esters in benzyl alcohol / benzyl benzoate / oil mixtures; assay type: physicochemical; conditions: for solubility: oil or lipid, thermodynamic from solid
Experimental: The esters’ solubility (mg/mL) was evaluated in mixtures which included different solvents and organic oils, such as medium-chain triglyceride (MCT), apricot, grape seed (GSO), castor, cottonseed, […] sesame oil.
The solutions contained mixtures of benzyl alcohol, benzyl benzoate and oil, with a volumetric ratio of 2% benzyl alcohol, 20% benzyl benzoate and 78% oil. Numerous pharmaceuticals of various lipophilic agents (various steroids were included) use benzyl benzoate as a co-solvent/solubilizer; benzyl alcohol behaves as well as a solvent and inhibits the microbial growth, and meanwhile the oils act as carriers.
In certain cases, an excess of raw samples remained undissolved (in suspension) and small quantities of mixtures were added, ensuring that the resulting solutions became homogenous, clear and transparent. Three measurements were taken to improve accuracy, and their average value was used.

[4] = esterified form, intramuscular or subcutaneous injection
[5] = 14 °C, 2% benzyl alcohol, 20% benzyl benzoate, 78% medium-chain triglyceride, 14 °C, average of three measurements, read-out: Solubility MCT
[6] = 14 °C, average over the six oil mixtures, 14 °C, read-out: Average solubility
[7] = benzyl alcohol / benzyl benzoate / apricot oil mixture, 14 °C, 2% benzyl alcohol, 20% benzyl benzoate, 78% apricot oil, 14 °C, average of three measurements, read-out: Solubility APRICOT
[8] = benzyl alcohol / benzyl benzoate / castor oil mixture, 14 °C, 2% benzyl alcohol, 20% benzyl benzoate, 78% castor oil, 14 °C, average of three measurements, read-out: Solubility CASTOR
[9] = benzyl alcohol / benzyl benzoate / cottonseed oil mixture, 14 °C, 2% benzyl alcohol, 20% benzyl benzoate, 78% cottonseed oil, 14 °C, average of three measurements, read-out: Solubility COTTON
[10] = benzyl alcohol / benzyl benzoate / grape seed oil mixture, 14 °C, 2% benzyl alcohol, 20% benzyl benzoate, 78% grape seed oil, 14 °C, average of three measurements, read-out: Solubility GSO
[11] = benzyl alcohol / benzyl benzoate / sesame oil mixture, 14 °C, 2% benzyl alcohol, 20% benzyl benzoate, 78% sesame oil, 14 °C, average of three measurements, read-out: Solubility SESAME

Row | Compound | Half-life [1, 4] | Solubility, averaging [2] | solubility [3, 5] | solubility [3, 6] | solubility [3, 7] | solubility [3, 8] | solubility [3, 9] | solubility [3, 10] | solubility [3, 11] | other results
1 | CC(=O)O[C@H]1CC[C@H]2[C@@H]3CCC4=CC(=O)CC[C@]4(C)[C@H]3CC[C@]12C [testosterone acetate] | less than 24 h | 110 mg/mL | – | – | – | – | – | – | – | –
2 | C[C@]12CC[C@H]3[C@@H](CCC4=CC(=O)CC[C@@]43C)[C@@H]1CC[C@@H]2OC(=O)CCC1CCCC1 [TCyp, Androst-4-en-17β-ol-3-one 17β-cyclopentylpropionate] | – | – | 257 mg/mL (≈ 623 mM) | ~255 mg/mL (≈ 618 mM) | 238 mg/mL (≈ 576 mM) | 287 mg/mL (≈ 695 mM) | 236 mg/mL (≈ 573 mM) | 239 mg/mL (≈ 580 mM) | 278 mg/mL (≈ 674 mM) | –
3 | CCCCCCCCCC(=O)OC1CCC2C3CCC4=CC(=O)CCC4(C)C3CCC12C (stereo not drawn) [TDec, Androst-4-en-17β-ol-3-one 17β-decanoate] | – | – | 597 mg/mL (≈ 1350 mM) | 534 mg/mL (≈ 1210 mM) | 537 mg/mL (≈ 1210 mM) | 530 mg/mL (≈ 1200 mM) | 496 mg/mL (≈ 1120 mM) | 497 mg/mL (≈ 1120 mM) | 549 mg/mL (≈ 1240 mM) | Solubility fold greater than the other esters ([3]; TDec compared with TCyp and TUnd, average solubility): 2.5–3 fold
4 | C[C@]12CC[C@H]3[C@@H](CCC4=CC(=O)CC[C@@]43C)[C@@H]1CC[C@@H]2O [Testosterone, 17β-Hydroxyandrost-4-en-3-one] | – | – | – | – | – | – | – | – | – | Half-life ([1]; non-esterified testosterone): a few hours
5 | Androst-4-en-17β-ol-3-one 17β-undecanoate [TUnd] | up to 36 days | – | – | – | – | – | – | – | – | Solubility APRICOT ([3]; 2% benzyl alcohol, 20% benzyl benzoate, 78% apricot oil, 14 °C, average of three measurements): 200.1 mg/mL; Solubility CASTOR ([3]; 2% benzyl alcohol, 20% benzyl benzoate, 78% castor oil, 14 °C, average of three measurements): 196.3 mg/mL; Solubility COTTON ([3]; 2% benzyl alcohol, 20% benzyl benzoate, 78% cottonseed oil, 14 °C, average of three measurements): 195.5 mg/mL; Solubility GSO ([3]; 2% benzyl alcohol, 20% benzyl benzoate, 78% grape seed oil, 14 °C, average of three measurements): 183.1 mg/mL; Solubility MCT ([3]; 2% benzyl alcohol, 20% benzyl benzoate, 78% medium-chain triglyceride, 14 °C, average of three measurements): 201.8 mg/mL; Solubility SESAME ([3]; 2% benzyl alcohol, 20% benzyl benzoate, 78% sesame oil, 14 °C, average of three measurements): 209.1 mg/mL; Average solubility ([3]; average over the six oil mixtures, 14 °C): roughly 197 mg/mL
6 | CC(C)CCC(=O)O[C@H]1CC[C@H]2[C@@H]3CCC4=CC(=O)CC[C@]4(C)[C@H]3CC[C@]12C [isocaproate] | – | 447 mg/mL (≈ 1160 mM) | – | – | – | – | – | – | – | –
